These molecules were tested against T1, RORγt (Homo sapiens, UniProt P51449) (assay: Fluorescence resonance energy transfer (FRET) test, inhibitory activity of RORγt). Conditions: FRET, B-RORγt LBD / Biotin-SRC1; read-out: IC50.
T1 construct: […]
T1 sequence (P51449 269-508 limits assumed): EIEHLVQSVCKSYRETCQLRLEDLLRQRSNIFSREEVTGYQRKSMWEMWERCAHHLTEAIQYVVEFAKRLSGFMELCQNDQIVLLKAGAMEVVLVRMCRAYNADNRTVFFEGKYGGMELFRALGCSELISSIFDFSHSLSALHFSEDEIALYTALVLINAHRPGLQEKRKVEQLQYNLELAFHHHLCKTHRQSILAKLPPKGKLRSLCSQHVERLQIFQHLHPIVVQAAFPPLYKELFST
Type: biochemical

IC50 [nM]	SMILES
21	CCS(=O)(=O)c1ccc([C@H](CC(=O)O)NC(=O)c2ccc(N3C[C@@H](Oc4ccc(C(F)(F)F)cc4)C[C@H]3COC(F)F)cc2)cc1 [Example 92, (S)-3-(4-((2S,4S)-2-((difluoromethoxy)methyl)-4-(4-(trifluoromethyl)phenoxy)pyrrolidin-1-yl)benzoylamino)-3-(4-(ethylsulfonyl)phenyl)propionic Acid]
13	CCS(=O)(=O)c1ccc([C@H](CC(=O)NO)NC(=O)c2ccc(N3C[C@@H](Oc4ccc(C(F)(F)F)cc4)C[C@H]3COC(F)F)cc2)cc1 [Example 93]
31	CCS(=O)(=O)c1ccc([C@H](CC(=O)NC)NC(=O)c2ccc(N3C[C@@H](Oc4ccc(C(F)(F)F)cc4)C[C@H]3COC(F)F)cc2)cc1 [Example 94]
77	CCS(=O)(=O)c1ccc([C@H](CC(=O)N(C)C)NC(=O)c2ccc(N3C[C@@H](Oc4ccc(C(F)(F)F)cc4)C[C@H]3COC(F)F)cc2)cc1 [Example 95]
31	CCS(=O)(=O)c1ccc([C@H](CC(=O)OC)NC(=O)c2ccc(N3C[C@@H](Oc4ccc(C(F)(F)F)cc4)C[C@H]3COC(F)(F)F)cc2)cc1 [Example 96, methyl (S)-3-(4-(ethylsulfonyl)phenyl)-3-(4-((2S,4S)-2-((trifluoromethoxy)methyl)-4-(4-(trifluoromethyl)phenoxy)pyrrolidin-1-yl)benzamido)propionate]
21	CCS(=O)(=O)c1ccc([C@H](CC(=O)OC)NC(=O)c2ccc(N3C[C@@H](Oc4ccc(C(F)(F)F)cc4)C[C@H]3COC(F)F)cc2)cc1 [Example 97, methyl (S)-3-(4-((2S,4S)-2-((difluoromethoxy)methyl)-4-(4-(trifluoromethyl)phenoxy)pyrrolidin-1-yl)benzoylamino)-3-(4-(ethylsulfonyl)phenyl)propionate]
21	CCS(=O)(=O)c1ccc([C@H](CC(N)=O)NC(=O)c2ccc(N3C[C@@H](Oc4ccc(C(F)(F)F)cc4)C[C@H]3COC(F)F)cc2)cc1 [Example 98, N—((S)-3-amino-1-(4-(ethylsulfonyl)phenyl)-3-oxopropyl)-4-((2S,4S)-2-((difluoromethoxy)methyl)-4-(4-(trifluoromethyl)phenoxy)pyrrolidin-1-yl)benzamide]
25	CCS(=O)(=O)c1ccc([C@H](CC(=O)NCC(=O)OC)NC(=O)c2ccc(N3C[C@@H](Oc4ccc(C(F)(F)F)cc4)C[C@H]3COC(F)F)cc2)cc1 [Example 99, methyl 2-((S)-3-(4-((2S,4S)-2-((difluoromethoxy)methyl)-4-(4-(trifluoromethyl)phenoxy)pyrrolidin-1-yl)benzoylamino)-3-(4-(ethylsulfonyl)phenyl)propionamido)acetate]
14	CCS(=O)(=O)c1ccc([C@H](CC(=O)NCC(=O)O)NC(=O)c2ccc(N3C[C@@H](Oc4ccc(C(F)(F)F)cc4)C[C@H]3COC(F)F)cc2)cc1 [Example 100, 2-((S)-3-(4-((2S,4S)-2-((difluoromethoxy)methyl)-4-(4-(trifluoromethyl)phenoxy)pyrrolidin-1-)benzoylamino)-3-(4-(ethylsulfonyl)phenyl)propionamido)acetic Acid]
4	CCS(=O)(=O)c1ccc([C@@H](NC(=O)c2ccc(N3C[C@@H](Oc4ccc(C(F)(F)F)cc4)C[C@H]3COC(F)F)cc2)C(=O)O)cc1 [Example 102, (R)-2-(4-((2S,4S)-2-((difluoromethoxy)methyl)-4-(4-(trifluoromethyl)phenoxy)pyrrolidin-1-yl)benzoylamino)-2-(4-(ethylsulfonyl)phenyl)acetic Acid]
60	CCS(=O)(=O)c1ccc([C@H](CN(C)C)NC(=O)c2ccc(N3C[C@@H](Oc4ccc(C(F)(F)F)cc4)C[C@H]3COC(F)F)cc2)cc1 [Example 103]
12	CCS(=O)(=O)c1ccc([C@H](COCCOC)NC(=O)c2ccc(N3C[C@@H](Oc4ccc(C(F)(F)F)cc4)C[C@H]3COC(F)F)cc2)cc1 [Example 104]
7	CCS(=O)(=O)c1ccc([C@H](CCC(=O)O)NC(=O)c2ccc(N3C[C@@H](Oc4ccc(C(F)(F)F)cc4)C[C@H]3COC(F)F)cc2)cc1 [Example 105, (S)-4-(4-((2S,4S)-2-((difluoromethoxy)methyl)-4-(4-(trifluoromethyl)phenoxy)pyrrolidin-1-yl)benzoylamino)-4-(4-(ethylsulfonyl)phenyl)butyric Acid]
52	CCS(=O)(=O)c1ccc([C@H](CCCC(=O)O)NC(=O)c2ccc(N3C[C@@H](Oc4ccc(C(F)(F)F)cc4)C[C@H]3COC(F)F)cc2)cc1 [Example 106, (S)-5-(4-((2S,4S)-2-((difluoromethoxy)methyl)-4-(4-(trifluoromethyl)phenoxy)pyrrolidin-1-yl)benzoylamino)-5-(4-(ethylsulfonyl)phenyl)valeric Acid]
24	CCOC[C@H]1CC[C@@H](c2ccc(C(F)(F)F)cc2)CN1c1ccc(C(=O)N[C@H](CC#N)c2ccc(S(=O)(=O)CC)cc2)cc1 [Example 108-2, N—((R)-2-cyano-1-(4-(ethylsulfonyl)phenyl)ethyl)-4-((2R,5S)-2-(ethoxymethyl)-5-(4-(trifluoromethyl)phenyl)piperidin-1-yl)benzamide]
7	CCS(=O)(=O)c1ccc([C@@H](CC#N)NC(=O)c2ccc(N3C[C@@H](c4ccc(C(F)(F)F)cc4)CC[C@H]3COCC3CC3)cc2)cc1 [Example 109-1, N—((R)-2-cyano-1-(4-(ethylsulfonyl)phenyl)ethyl)-4-((2S,5R)-2-((cyclopropylmethoxy)methyl)-5-(4-(trifluoromethyl)phenyl)piperidin-1-yl)benzamide]
19	CCC(F)(F)OC[C@@H]1CC[C@H](c2ccc(C(F)(F)F)cc2)CN1c1ccc(C(=O)N[C@H](CC#N)c2ccc(S(=O)(=O)CC)cc2)cc1 [Example 110-1, N—((R)-2-cyano-1-(4-(ethylsulfonyl)phenyl)ethyl)-4-((2S,5R)-2-((1,1-difluoropropoxy)methyl)-5-(4-(trifluoromethyl)phenyl)piperidin-1-yl)benzamide]
7	CCC(F)(F)OC[C@H]1CC[C@@H](c2ccc(C(F)(F)F)cc2)CN1c1ccc(C(=O)N[C@H](CC#N)c2ccc(S(=O)(=O)CC)cc2)cc1 [Example 110-2, N—((R)-2-cyano-1-(4-(ethylsulfonyl)phenyl)ethyl)-4-((2R,5S)-2-((1,1-difluoropropoxy)methyl)-5-(4-(trifluoromethyl)phenyl)piperidin-1-yl)benzamide]
16	CCS(=O)(=O)c1ccc([C@H](CC#N)NC(=O)c2ccc(N3C[C@H](c4ccc(C(F)(F)F)cc4)CC[C@H]3COC(F)F)cc2F)cc1 [Example 111-1, N—((S)-2-cyano-1-(4-(ethylsulfonyl)phenyl)ethyl)-4-((2S,5S)-2-((difluoromethoxy)methyl)-5-(4-(trifluoromethyl)phenyl)piperidin-1-yl)-2-fluorobenzamide]
13	CCS(=O)(=O)c1ccc([C@H](CC#N)NC(=O)c2ccc(N3C[C@@H](c4ccc(C(F)(F)F)cc4)CC[C@H]3COC(F)F)c(F)c2)cc1 [Example 113-2, N—((S)-2-cyano-1-(4-(ethylsulfonyl)phenyl)ethyl)-4-((2S,5R)-2-((difluoromethoxy)methyl)-5-(4-(trifluoromethyl)phenyl)piperidin-1-yl)-3-fluorobenzamide]
23	CCS(=O)(=O)c1ccc([C@H](CC#N)NC(=O)c2ccc(N3C[C@@H](c4ccc(F)cc4)CC[C@H]3COC(F)F)cc2)cc1 [Example 114-2, N—((S)-2-cyano-1-(4-(ethylsulfonyl)phenyl)ethyl)-4-((2S,5R)-2-((difluoromethoxy)methyl)-5-(4-fluorophenyl)piperidin-1-yl)benzamide]
26	CCS(=O)(=O)c1ccc([C@H](CC#N)NC(=O)c2ccc(N3C[C@H](c4ccccc4)CC[C@H]3COC(F)F)cc2)cc1 [Example 115-2, N—((S)-2-cyano-1-(4-(ethylsulfonyl)phenyl)ethyl)-4-((2S,5S)-2-((difluoromethoxy)methyl)-5-phenylpiperidin-1-yl)benzamide]
26	CCS(=O)(=O)c1ccc([C@H](CC#N)NC(=O)c2ccc(N3C[C@H](N4CCC(C(F)(F)F)CC4)CC[C@H]3COC(F)F)cc2)cc1 [Example 117-2, N—((S)-2-cyano-1-(4-(ethylsulfonyl)phenyl)ethyl)-4-((3′R,6′S)-6′-((difluoromethoxy)methyl)-4-(trifluoromethyl)-(1,3′-bipiperidin)-1′-yl)benzamide]
120	CCS(=O)(=O)c1ccc([C@H](CC#N)NC(=O)c2ccc(N3C[C@H](O)C[C@H]3COC(F)F)cc2)cc1 [Example 131, N—((S)-2-cyano-1-(4-(ethylsulfonyl)phenyl)ethyl)-4-((2S,4R) ((difluoromethoxy)methyl)-4-hydroxypyrrolidin-1-yl)benzamide]
104	CCS(=O)(=O)c1ccc([C@H](CC#N)NC(=O)c2ccc(C(O)(C(F)(F)F)C(F)(F)F)cc2)cc1 [Example 143, (S)—N-(2-cyano-1-(4-(ethylsulfonyl)phenyl)ethyl)-4-(1,1,1,3,3,3-hexafluoro-2-hydroxypropan-2-yl)benzamide]
18.2	CCS(=O)(=O)c1ccc([C@H](CNC(=O)OC)NC(=O)c2ccc(N3C[C@@H](Oc4ccc(C(F)(F)F)cc4)C[C@H]3COC(F)F)cc2)cc1 [Example 147, methyl ((R)-2-(4-((2S,4S)-2-((difluoromethoxy)methyl)-4-(4-(trifluoromethyl)phenoxy)pyrrolidin-1-yl)benzoylamino)-2-(4-(ethylsulfonyl)phenyl)ethyl)carbamate]
15.2	CCS(=O)(=O)c1ccc([C@H](CNC=O)NC(=O)c2ccc(N3C[C@@H](Oc4ccc(C(F)(F)F)cc4)C[C@H]3COC(F)F)cc2)cc1 [Example 148]
